Patent US9340506B2, “Acetamide derivatives as glucokinase activators, their process and medicinal applications” (ADVINUS THERAPEUTICS LIMITED, priority 2007, dated 2016)

What was measured:
[1] = molecular target: purified human recombinant GK (Homo sapiens (Human), UniProt P35557); experiment: Glucokinase activity assay (coupled enzymatic, G6PD/NADH absorbance at 340 nm); format: biochemical; conditions: for EC50: EC50 of % change in S0.5 of glucokinase for glucose, sigmoidal fit, read-out: EC50 (with respect to % ΔS0.5); for Emax: read-out: % Emax (with respect to % ΔS0.5)
Description: The glucokinase (GK) assay is a coupled enzymatic assay. GK catalyzes the first step of glycolysis, the conversion of glucose to glucose-6-phosphate (G6P) in the presence of ATP. G6P in turn is converted by glucose-6-phosphate dehydrogenase (G6PD) to 6-phosphogluconate, a process that requires NAD, resulting in NADH formation. Since the GK-catalyzed step is the rate-limiting step of this coupled enzymatic process, the rate of accumulation of 6-phosphogluconate and NADH is directly proportional to the rate of glucose phosphorylation by GK. The rate of the GK-catalyzed reaction can therefore be measured by monitoring the increase in NADH absorbance at 340 nm.
The assay is carried out according to the protocol outlined in Hariharan et al (1997), Diabetes 46: 11-16. Briefly, the test compounds are incubated in a reaction mix containing 25 mM HEPES (pH 7.2), 10 mM MgCl2, 100 mM KCl, 5 mM ATP, 2 mM DTT, 0.5 mM NAD, 1 U/mL Leuconostoc mesenteroides G6PD, 0.3 U/mL of purified human recombinant GK, and different concentrations of glucose. Enzymatic activity is calculated from the initial reaction velocity, measured from the change in NADH absorbance as a function of time.
Compounds described in formula (I), in concentration ranges from 1.0 nM to 500 μM, are tested in the purified human recombinant glucokinase assay described above.
A compound is considered to be a glucokinase activator if it, in its testable range of concentrations, yields a higher rate of glucose phosphorylation than in its absence at a particular glucose concentration, for example at 5 mM glucose.
Compounds of general formula (I) are tested in the in vitro GK enzymatic assay to monitor dose-dependent effect on glucokinase activation (in kinetic mode), as described above, at various glucose concentrations. The S0.5 of glucokinase for glucose at different concentration of each compound of interest is calculated from the following modified version of the Michaelis-Menten equation, V=Vmax [S]^n/(S0.5^n+[S]^n), where [S] is the glucose concentration and n is the Hill coefficient (taken as 1.7 to account for the sigoidal kinetics of glucokinase with respect to glucose). The S0.5 is plotted against the log of the compound concentration. The change in the S0.5 of glucokinase (ΔS0.5) for glucose is calculated by subtracting the S0.5 at each concentration of the compound from the S0.5 in the vehicle control. The ΔS0.5 is then normalized to a percent scale, where the S0.5 in the vehicle control is set to 0% and 0 mM glucose is set to 100%. The % ΔS0.5 is then plotted against the log of the compound concentration. The EC50 and Emax of % change in S0.5 is obtained from the sigoidal fit of the data. Detailed protocol has been described in our copending application no. 409/CHE/2007 which is incorporated herein by reference. Characterization data of some representative glucokinase activators of the present disclosure, which are illustrative but not limiting, are given in table I below.

primary rat hepatocytes = experiment: Glycogen synthesis in primary rat hepatocytes; format: cell-based; conditions: Hepatocyte, 10 μM concentration, primary hepatocytes from male Wistar rats, D-[U14C]-glucose, 3 hours, read-out: Glycogen synthesis, fold increase over DMSO control
Method: The glycogen deposition assay was carried out with few modifications in the original protocol as described in “Biochem J. 1990 Feb. 15; 266(1): 91-102”. In brief, primary hepatocytes were collected from male Wistar rats, and were seeded in a 48-well plate at a density of 150,000 cells/well in Minimal Essential Medium (MEM) containing 10% foetal calf serum (FCS) 100 nM insulin and 10 nM dexamethasone. followed by incubation for 4 hours at 37° C. The medium was replaced with fresh MEM containing 10% FCS and 10 nM dexamethasone and the cells were further incubated for 16 hours at 37° C. Following day, the medium was replaced with fresh MEM (serum-free) containing 2 μCi/ml of D-[U^14C]-glucose in the presence of the test compound. Hepatocytes were incubated for 3 hours at 37° C. followed by washing with 150 mM NaCl. Cells were lysed with 0.1 N NaOH, and the lysate was precipitated with 80% w/v trichloroacetic acid (TCA). Cell debris was pelleted by centrifugation, the supernatant was removed, and the glycogen was precipitated with 66% ethanol followed by drying overnight. Samples were dissolved in MiliQ water and transferred to 96 well reading plate, 100 μL scintillant was added per well and the plate was read in scintillation counter (MicroBeta Trilux, Perkin Elmer). Data was expressed as fold increase in glycogen synthesis over DMSO control (untreated hepatocytes).

[2] = Emax of % change in S0.5 of glucokinase for glucose, vehicle S0.5 = 0%, 0 mM glucose = 100%

Sequence of purified human recombinant GK (P35557 whole entry): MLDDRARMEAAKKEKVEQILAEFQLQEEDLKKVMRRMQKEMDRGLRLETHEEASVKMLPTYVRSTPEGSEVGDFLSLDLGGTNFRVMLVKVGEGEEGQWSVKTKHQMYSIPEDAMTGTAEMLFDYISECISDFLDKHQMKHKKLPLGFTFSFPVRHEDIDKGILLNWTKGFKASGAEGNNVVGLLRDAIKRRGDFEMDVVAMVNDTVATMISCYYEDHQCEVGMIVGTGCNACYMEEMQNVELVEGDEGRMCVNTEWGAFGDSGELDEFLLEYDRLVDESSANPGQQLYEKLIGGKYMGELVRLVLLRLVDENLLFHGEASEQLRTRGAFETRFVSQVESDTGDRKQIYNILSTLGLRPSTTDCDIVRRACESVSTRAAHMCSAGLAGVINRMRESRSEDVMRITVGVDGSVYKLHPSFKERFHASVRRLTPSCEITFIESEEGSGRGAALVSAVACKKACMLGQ

Row | Structure (SMILES) | EC50 [1] | Emax [1, 2] | fold induction at 10 µM (primary rat hepatocytes) | % Emax (with respect to % ΔS0.5) [1, 2]
1 | O=C(O)c1cccc(Oc2cnc(NC(=O)C(OC3CCOCC3)c3ccc(S(=O)(=O)C4CCCC4)nc3)s2)c1 (single isomer, unassigned; (+)) [Example G27A, (+)-3-[2-[[2-(6-cyclopentylsulfonyl-3-pyridyl)-2-tetrahydropyran-4-yloxy-acetyl]amino]thiazol-5-yl]oxybenzoic acid] | 130 nM | 95% | > 2.5 | –
2 | Cc1cc(Oc2cnc(NC(=O)C(OC3CCOCC3)c3ccc(S(=O)(=O)C4CC4)cc3)s2)ccc1C(=O)O (single isomer, unassigned; (+)) [Example G1A, (+)4-[2-[[2-(4-cyclopropylsulfonylphenyl)-2-tetrahydropyran-4-yloxy-acetyl]amino]thiazol-5-yl]oxy-2-methyl-benzoic acid] | 87 nM | 97% | > 2.5 | –
3 | O=C(O)c1cccc(Oc2cnc(NC(=O)C(OC3CCOCC3)c3ccc(S(=O)(=O)C4CC4)cc3)s2)c1 (single isomer, unassigned; (+)) [Example G8A, (+)3-[2-[[2-(4-cyclopropylsulfonylphenyl)-2-tetrahydropyran-4-yloxy-acetyl]amino]thiazol-5-yl]oxybenzoic acid] | 190 nM | – | > 2.5 | –
4 | O=C(Nc1ncc(Oc2cccc(CO)c2)s1)C(OC1CCOCC1)c1ccc(S(=O)(=O)C2CC2)cc1 (single isomer, unassigned; (+)) [Example G20A, (+)2-(4-cyclopropylsulfonylphenyl)-N-[5-[3-(hydroxymethyl)phenoxy]thiazol-2-yl]-2-tetrahydro-pyran-4-yloxy-acetamide] | 64 nM | 93% | > 2.5 | –
5 | COc1cc(Oc2cnc(NC(=O)C(OC3CCOCC3)c3ccc(S(=O)(=O)C4CC4)cc3)s2)ccc1C(=O)O (single isomer, unassigned; (+)) [Example G9A, (+)4-[2-[[2-(4-cyclopropylsulfonylphenyl)-2-tetrahydropyran-4-yloxy-acetyl]amino]thiazol-5-yl]oxy-2-methoxy-benzoic acid] | 270 nM | 92% | > 2.5 | –
6 | O=C(Nc1ncc(-n2cccn2)s1)C(Oc1ccc(F)cc1F)c1ccc(S(=O)(=O)C2CC2)cc1 (single isomer, unassigned; (-)) [Example G4B, (−)2-(4-cyclopropylsulfonylphenyl)-2-(2,4-difluorophenoxy)-N-(5-pyrazol-1-ylthiazol-2-yl)acetamide] | 640 nM | – | – | 79%
7 | O=C(Nc1ncc(F)s1)C(OC1CCOCC1)c1ccc(S(=O)(=O)N2CCOCC2)cc1 (stereo not drawn) [Example A-11, N-(5-fluorothiazol-2-yl)-2-(4-morpholinosulfonylphenyl)-2-tetrahydropyran-4-yloxy-acetamide] | 950 nM | 85% | – | –
8 | Cc1cc(Oc2cnc(NC(=O)C(O[C@@H]3CCOC3)c3ccc(S(=O)(=O)C4CC4)cc3)s2)ccc1C(=O)O (single isomer, unassigned; (+)) [Example G14A] | 380 nM | 99% | – | –
9 | CC(C)(C)OC(=O)c1ccc(NC(=O)C(Oc2ccc(F)cc2F)c2ccc(S(=O)(=O)N3CCOCC3)cc2)nc1 (stereo not drawn) [Example A-58, tert-Butyl 6-[[2-(2,4-difluorophenoxy)-2-(4-morpholinosulfonylphenyl)acetyl]amino]pyridine-3-carboxylate] | > 10000 nM | – | – | –
10 | O=C(Nc1ncc(C(O)CO)s1)C(Oc1ccc(F)cc1F)c1ccc(S(=O)(=O)C2CC2)cc1 (stereo not drawn) [Example E3, 2-(4-cyclopropylsulfonylphenyl)-2-(2,4-difluorophenoxy)-N-[5-(1,2-dihydroxyethyl)thiazol-2-yl]acetamide] | 1200 nM | 88% | – | –
11 | O=C(O)c1cccc(Oc2cnc(NC(=O)C(O[C@@H]3CCOC3)c3ccc(S(=O)(=O)C4CC4)cc3)s2)c1 (single isomer, unassigned; (+)) [Example G21A] | – | – | > 2.5 | –
